Results: PMC9929129, “Towards Translation of PqsR Inverse Agonists: From In Vitro Efficacy Optimization to In Vivo Proof‐of‐Principle” (Advanced Science, 2023)
Read-outs that look alike come from different tables or passages of the source.

Tested on: Pseudomonas aeruginosa strain RP73
Assay: Alkylquinolone quantification, strain RP73
Format: cell-based
Settings: RP73, 17 h
Description: re-extracted with 0.2 M HCl and quantified photometrically (520 nm). IC50 values were determined from dose-response curves of compounds using at least six different concentrations and fitting with non-linear regression analysis (OriginPro 2017–2020, Originlab Corporation).
1.2.3 Alkylquinolone quantification
Inhibition of alkylquinolone (AQ) signal molecule biosynthesis of compound 24 was analyzed via LC-ESI-MS/MS. Extracellular concentrations of the AQs PQS (2-heptyl-3-hydroxy-4-quinolone), HHQ (2-heptyl-4-quinolone), HQNO (N-oxo-2-heptyl-4-Hydroxyquinoline), 2-AA (2-aminoacetophenone) were measured from supernatants of cultures incubated with or without compound for 17 h. 5,6,7,8-Tetradeutero-2-heptyl-4(1H)-quinolone (HHQ-d4) was added as internal standard before sample preparation. IC50 values were calculated according to the procedure of the pyocyanin assay (see above). LC-ESI-MS/MS conditions were as follows: Dionex Ultimate 3000 HPLC instrument parameters: Zorbax Eclipse XDB 80 Å C18 5 µm 4.6 x 50 mm (Agilent, Santa Clara, CA, USA); eluent A – H2O with 0.1% trifluoroacetic acid (TFA), 0.1% pentafluoropropionic acid (PFPA), 0.1% heptafluorobutyric acid (HFBA); eluent B – acetonitrile with 0.1% TFA, 0.1% PFPA, 0.1% HFBA; isocratic 50% A; flow – 0.7 mL/min. TSQ Quantum Access Max (Thermo Fisher Scientific, Waltham, MA, USA) instrument parameters: Spray voltage 3500 V, vaporizer temperature 370 °C, sheath gas pressure 35 psi, aux gas pressure 30 psi, capillary temperature 270 °C, collision pressure 1.5 mTorr, positive ionization mode. For AQ analyte reaction monitoring parameters please see Table S1.
Table S1. LC-ESI-MS/MS reaction monitoring parameters of AQ analytes in positive ionization mode. precursor product ion collision tube lens retention ion m/z m/z energy (V) offset (V) time (min)
1.2.4 Biofilm-formation assay […]
(Innvotech, Edmonton, CA). An overnight culture of PA14 was centrifuged (10 min, 5000 x g). The supernatant including extracellular polymers was removed and the pellet washed with 10 mL of LB medium. Centrifugation was repeated, the supernatant discarded, and the pellet resuspended in 5 mL of LB. OD was adjusted to 0.2. The bacteria were further diluted in LB medium, followed by addition of the target compound or DMSO control to give OD 0.1 and 1% DMSO. 150 µL were added to each well of the 96-well plate. The outer wells were used as blanks containing 150 µL of 1% DMSO in LB. Six replicates per sample were distributed evenly across the plate, with every row containing one replicate of each sample. The well plate was covered with the peg lid. One layer of parafilm was wrapped around the biofilm inoculator. The inoculator was incubated at 37 °C, static for 24 h with a beaker of H2O ensuring humidity. […]

Work on `CC(C)Oc1ccc(-c2ncc(CNc3ccnc(C(F)(F)F)c3)cn2)cc1Cl` [Compound 24] yielded an IC50 (read-out: IC50 RP73, 2‐AA biosynthesis) of 0.213 µM, an IC50 (read-out: IC50 RP73, HHQ biosynthesis) of 0.453 µM and an IC50 (read-out: IC50 RP73, HQNO biosynthesis) of 0.23 µM. It also gave an IC50 (read-out: IC50 RP73, PQS biosynthesis) of 0.16 µM.
